26 compounds from US20090012103A1, “SUBSTITUTED HETEROCYCLIC COMPOUNDS” (priority 2007, published 2009) can be followed below.

SMILES strings stand for the structures.

In the experiment the target is wild-type human cardiac sodium channel, hNav1.5 (Homo sapiens, UniProt Q14524). Kind of experiment: Late INa screening assay (late sodium current, PatchXpress whole cell patch clamp). To be noted: compound at 10 μM; read-out: Late INa % blk. It counts as cell-based. A general note: In patch-clamp work, channel activity is measured electrically.
Chain of wild-type human cardiac sodium channel, hNav1.5 (Q14524 whole entry): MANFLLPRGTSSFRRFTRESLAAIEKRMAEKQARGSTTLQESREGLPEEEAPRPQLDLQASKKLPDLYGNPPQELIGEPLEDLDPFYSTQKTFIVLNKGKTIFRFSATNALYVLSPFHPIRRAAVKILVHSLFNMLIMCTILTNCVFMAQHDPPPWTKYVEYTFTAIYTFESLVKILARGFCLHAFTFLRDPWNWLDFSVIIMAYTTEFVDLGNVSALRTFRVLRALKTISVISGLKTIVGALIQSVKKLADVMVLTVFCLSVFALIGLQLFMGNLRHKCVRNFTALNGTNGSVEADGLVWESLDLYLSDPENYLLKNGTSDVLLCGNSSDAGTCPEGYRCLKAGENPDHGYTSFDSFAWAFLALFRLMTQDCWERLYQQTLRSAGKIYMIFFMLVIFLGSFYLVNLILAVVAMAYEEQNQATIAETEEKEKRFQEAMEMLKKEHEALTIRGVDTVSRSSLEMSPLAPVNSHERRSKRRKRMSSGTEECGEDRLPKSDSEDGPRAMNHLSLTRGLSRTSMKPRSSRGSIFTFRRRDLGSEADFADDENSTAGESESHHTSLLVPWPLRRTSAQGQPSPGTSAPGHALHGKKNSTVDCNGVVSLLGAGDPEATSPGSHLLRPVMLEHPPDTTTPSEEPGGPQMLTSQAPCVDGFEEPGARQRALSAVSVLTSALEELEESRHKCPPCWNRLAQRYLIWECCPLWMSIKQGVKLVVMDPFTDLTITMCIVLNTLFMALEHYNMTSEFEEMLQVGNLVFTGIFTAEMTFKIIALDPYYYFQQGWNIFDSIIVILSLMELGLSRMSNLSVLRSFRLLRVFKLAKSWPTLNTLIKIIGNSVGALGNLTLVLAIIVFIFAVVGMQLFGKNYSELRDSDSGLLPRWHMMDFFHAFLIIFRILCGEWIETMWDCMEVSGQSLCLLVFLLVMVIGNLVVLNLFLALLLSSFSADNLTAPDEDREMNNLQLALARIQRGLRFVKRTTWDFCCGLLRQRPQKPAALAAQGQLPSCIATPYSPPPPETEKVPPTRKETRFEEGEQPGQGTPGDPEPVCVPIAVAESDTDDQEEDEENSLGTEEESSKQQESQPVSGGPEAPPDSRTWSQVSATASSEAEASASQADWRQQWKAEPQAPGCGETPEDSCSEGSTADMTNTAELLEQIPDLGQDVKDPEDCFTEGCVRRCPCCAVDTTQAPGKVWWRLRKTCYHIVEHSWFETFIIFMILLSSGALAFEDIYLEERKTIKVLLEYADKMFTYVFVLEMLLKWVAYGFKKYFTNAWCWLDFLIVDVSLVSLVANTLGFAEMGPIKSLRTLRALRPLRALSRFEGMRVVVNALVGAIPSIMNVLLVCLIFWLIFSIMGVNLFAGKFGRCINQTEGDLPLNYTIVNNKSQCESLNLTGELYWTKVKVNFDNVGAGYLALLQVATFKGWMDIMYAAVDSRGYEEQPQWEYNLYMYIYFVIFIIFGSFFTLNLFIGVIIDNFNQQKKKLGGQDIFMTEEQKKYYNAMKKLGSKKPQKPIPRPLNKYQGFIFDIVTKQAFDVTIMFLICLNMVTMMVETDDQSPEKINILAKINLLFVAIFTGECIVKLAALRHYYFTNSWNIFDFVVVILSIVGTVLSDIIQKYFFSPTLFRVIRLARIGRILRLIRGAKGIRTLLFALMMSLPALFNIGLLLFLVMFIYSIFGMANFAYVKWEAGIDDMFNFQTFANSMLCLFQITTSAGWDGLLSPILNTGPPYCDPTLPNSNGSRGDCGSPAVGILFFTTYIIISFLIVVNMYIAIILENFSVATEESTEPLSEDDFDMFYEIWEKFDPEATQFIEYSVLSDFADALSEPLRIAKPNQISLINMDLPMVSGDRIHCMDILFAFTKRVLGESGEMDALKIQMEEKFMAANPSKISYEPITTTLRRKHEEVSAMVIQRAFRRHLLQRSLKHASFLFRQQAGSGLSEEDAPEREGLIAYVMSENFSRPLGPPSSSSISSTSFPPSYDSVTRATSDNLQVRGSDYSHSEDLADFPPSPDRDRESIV
As to `CCOC(=O)C1=C(C)Nc2[nH]ncc2C1c1ccccc1-c1cccc(C(C)=O)c1` (centres unmarked) [PT-451, ethyl 4-(3′-acetylbiphenyl-2-yl)-6-methyl-4,7-dihydro-1H-pyrazolo[3,4-b]pyridine-5-carboxylate], the inhibition at 10 µM stood at 18.4%. The result for `CCOC(=O)C1=C(C)Nc2nnnn2C1c1ccccc1Oc1ccc(C(=O)O)cc1` (centres unmarked) [PT-291, 4-(2-(6-(ethoxycarbonyl)-5-methyl-4,7-dihydrotetrazolo[1,5-a]pyrimidin-7-yl)phenoxy)benzoic acid] reads 15.2%. With `CC1=C(C(=O)OCc2ccccc2)C(c2ccccc2F)n2nnnc2N1` (centres unmarked) [PT-391, benzyl 7-(2-fluorophenyl)-5-methyl-4,7-dihydrotetrazolo[1,5-a]pyrimidine-6-carboxylate] the figure was 32.4%; with `CC1=C(C(=O)OCc2ccccc2)C(c2cc(-c3ccsc3)cs2)n2nnnc2N1` (centres unmarked) [PT-398, benzyl 7-(3,3′-bithiophen-5-yl)-5-methyl-4,7-dihydrotetrazolo[1,5-a]pyrimidine-6-carboxylate], 18.3%. With `CCOC(=O)C1=C(C)Nc2nnnn2C1c1ccccc1Oc1cccc(C(=O)O)c1` (centres unmarked) [PT-272, 3-(2-(6-(ethoxycarbonyl)-5-methyl-4,7-dihydrotetrazolo[1,5-a]pyrimidin-7-yl)phenoxy)benzoic acid] the figure was -4.9%; with `CC1=C(C(=O)OC(C)(C)Cc2ccccc2)C(c2ccccc2Br)c2cn[nH]c2N1` (centres unmarked) [PT-263, 2-methyl-1-phenylpropan-2-yl 4-(2-bromophenyl)-6-methyl-4,7-dihydro-1H-pyrazolo[3,4-b]pyridine-5-carboxylate], 38.8%. With `COc1cccc(OCc2ccccc2)c1C1C(C(=O)OCc2ccccc2)=C(C)Nc2nnnn21` (centres unmarked) [PT-382, benzyl 7-(2-(benzyloxy)-6-methoxyphenyl)-5-methyl-4,7-dihydrotetrazolo[1,5-a]pyrimidine-6-carboxylate], the inhibition at 10 µM worked out at 13.9%. For `CC1=C(C(=O)OCc2ccc(-c3ccccc3)cc2)C(c2cccc3ccccc23)n2nnnc2N1` (centres unmarked) [PT-004, biphenyl-4-ylmethyl 5-methyl-7-(naphthalen-1-yl)-4,7-dihydrotetrazolo[1,5-a]pyrimidine-6-carboxylate], the inhibition at 10 µM came to 25.5%. The result for `CC1=C(C(=O)N2CCC(c3ccccc3)CC2)C(c2ccc3ccccc3c2)C2=C(CCCC2=O)N1` (centres unmarked) [PT-169, 2-methyl-4-(naphthalen-2-yl)-3-(4-phenylpiperidine-1-carbonyl)-4,6,7,8-tetrahydroquinolin-5(1H)-one] reads 11.8%; that for `CC1=C(C(=O)OCc2ccccc2)C(c2ccc(OCCN(C)C)cc2)n2nnnc2N1` (centres unmarked) [PT-405, benzyl 7-(4-(2-(dimethylamino)ethoxy)phenyl)-5-methyl-4,7-dihydrotetrazolo[1,5-a]pyrimidine-6-carboxylate], 18.4%.

As to `CCOC(=O)C1=C(C)OC(N)=C(C#N)C1c1ccco1` (centres unmarked) [PT-092, ethyl 6-amino-5-cyano-4-(furan-2-yl)-2-methyl-4H-pyran-3-carboxylate], the inhibition at 10 µM was -0.2%. The result for `CC1=C(C(=O)OCc2ccccc2)C(c2ccccc2-c2ccccc2C#N)n2nnnc2N1` (centres unmarked) [PT-390, benzyl 7-(2′-cyanobiphenyl-2-yl)-5-methyl-4,7-dihydrotetrazolo[1,5-a]pyrimidine-6-carboxylate] reads 20%; that for `CCOC(=O)C1=C(C)NC(C)=C(C(=O)OCC)C1c1ccc([N+](=O)[O-])cc1OC` [PT-433, diethyl 4-(2-methoxy-4-nitrophenyl)-2,6-dimethyl-1,4-dihydropyridine-3,5-dicarboxylate], 30.3%; that for `CC1=C(C(=O)OCc2ccccc2)C(c2ccc(OC(F)(F)F)cc2)n2nnnc2N1` (centres unmarked) [PT-357, benzyl 5-methyl-7-(4-(trifluoromethoxy)phenyl)-4,7-dihydrotetrazolo[1,5-a]pyrimidine-6-carboxylate], 19.6%. The result for `CC1=C(C(=O)OCc2ccccc2)[C@@H](c2ccccc2-c2ccc(C(F)(F)F)cc2)n2nnnc2N1` [PT-236, (R)-benzyl 5-methyl-7-(4′-(trifluoromethyl)biphenyl-2-yl)-4,7-dihydrotetrazolo[1,5-a]pyrimidine-6-carboxylate] reads 68%.

Consider `O=C1OCC2=C1C(c1cccc3ccccc13)c1cnn(-c3ccccc3)c1N2` (centres unmarked) [PT-082, 4-(naphthalen-1-yl)-1-phenyl-7,8-dihydro-1H-furo[3,4-e]pyrazolo[3,4-b]pyridin-5(4H)-one], for which the inhibition at 10 µM was determined as 43.1%. With `CC1(C)CC(=O)C2=C(C1)OC(N)=C(C#N)C2c1cccc(C(=O)O)c1` (centres unmarked) [PT-098, 3-(2-amino-3-cyano-7,7-dimethyl-5-oxo-5,6,7,8-tetrahydro-4H-chromen-4-yl)benzoic acid] the figure was -27.9%. Consider `COC(=O)C1=C(C)Nc2nnnn2C1c1sc2ccccc2c1-c1cccc(C(=O)O)c1` (centres unmarked) [PT-273, 3-(2-(6-(methoxycarbonyl)-5-methyl-4,7-dihydrotetrazolo[1,5-a]pyrimidin-7-yl)benzo[b]thiophen-3-yl)benzoic acid], for which the inhibition at 10 µM was 14.1%.

Take `CC1=C(C(=O)OCc2ccccc2)C(c2ccc(N(C)C)c3ccccc23)n2ncc(C(=O)O)c2N1` (centres unmarked) [PT-311, 6-(benzyloxycarbonyl)-7-(4-(dimethylamino)naphthalen-1-yl)-5-methyl-4,7-dihydropyrazolo[1,5-a]pyrimidine-3-carboxylic acid]: the inhibition at 10 µM is -7.5%.

For `CC1=C(C(=O)OCc2ccccc2)C(c2ccccc2N2CCOCC2)n2nnnc2N1` (centres unmarked) [PT-345, benzyl 5-methyl-7-(2-morpholinophenyl)-4,7-dihydrotetrazolo[1,5-a]pyrimidine-6-carboxylate], the inhibition at 10 µM is 36.7%. With `CCOC(=O)c1c(C)nc2[nH]ncc2c1-c1ccccc1-c1cccc(C(C)=O)c1` [PT-450, ethyl 4-(3′-acetylbiphenyl-2-yl)-6-methyl-1H-pyrazolo[3,4-b]pyridine-5-carboxylate] the figure was 7.3%; with `COc1cc(Cl)ccc1COC(=O)C1=C(C)Nc2nnnn2C1c1cccc2ccccc12` (centres unmarked) [PT-304, 4-chloro-2-methoxybenzyl 5-methyl-7-(naphthalen-1-yl)-4,7-dihydrotetrazolo[1,5-a]pyrimidine-6-carboxylate], 63%. `CC1=C(C(=O)OCc2ccccc2)C(c2ccc(Br)cc2F)n2nnnc2N1` (centres unmarked) [PT-416, benzyl 7-(4-bromo-2-fluorophenyl)-5-methyl-4,7-dihydrotetrazolo[1,5-a]pyrimidine-6-carboxylate]: the inhibition at 10 µM stood at 25.6%.

Take `CCOC(=O)C1=C(C)NC2=C(C(=O)CCC2)C1c1cccnc1Cl` (centres unmarked) [PT-189, ethyl 4-(2-chloropyridin-3-yl)-2-methyl-5-oxo-1,4,5,6,7,8-hexahydroquinoline-3-carboxylate]: the inhibition at 10 µM is 0.5%. The result for `CC1=C(C(=O)O[C@@H](C)c2ccccc2)C(c2cc3ccccc3o2)n2nnnc2N1` (stereo partly drawn) [PT-058, (S)-1-phenylethyl 7-(benzofuran-2-yl)-5-methyl-4,7-dihydrotetrazolo[1,5-a]pyrimidine-6-carboxylate] reads 71.4%; that for `COc1ccc2c(C3C(C(=O)OCc4ccccc4)=C(C)Nc4nnnn43)ccc(OC)c2c1` (centres unmarked) [PT-033, benzyl 7-(4,6-dimethoxynaphthalen-1-yl)-5-methyl-4,7-dihydrotetrazolo[1,5-a]pyrimidine-6-carboxylate], 23.3%.
